Experimental data as given in US20100003724A1, “CHEMICALLY MODIFIED NUCLEOSIDE 5'-TRIPHOSPHATES FOR THERMALLY INITIATED AMPLIFICATION OF NUCLEIC ACID” (priority 2008, published 2010).
Like-named read-outs stand apart in the source and are kept apart here.

Experiments:
[1] = target: Klenow (exo-) DNA polymerase (Escherichia coli, UniProt P00582, D355A/E357A); conditions: for substrate for Klenow (exo-) DNA polymerase (incorporation and extension): after a 40 minute preheating step at 95° C.; for substrate for Klenow (exo-) DNA polymerase (incorporation into the primer): room temperature, unheated 3′-substituted dTTP
Sequence of Klenow (exo-) DNA polymerase (P00582 324-928 D355A/E357A): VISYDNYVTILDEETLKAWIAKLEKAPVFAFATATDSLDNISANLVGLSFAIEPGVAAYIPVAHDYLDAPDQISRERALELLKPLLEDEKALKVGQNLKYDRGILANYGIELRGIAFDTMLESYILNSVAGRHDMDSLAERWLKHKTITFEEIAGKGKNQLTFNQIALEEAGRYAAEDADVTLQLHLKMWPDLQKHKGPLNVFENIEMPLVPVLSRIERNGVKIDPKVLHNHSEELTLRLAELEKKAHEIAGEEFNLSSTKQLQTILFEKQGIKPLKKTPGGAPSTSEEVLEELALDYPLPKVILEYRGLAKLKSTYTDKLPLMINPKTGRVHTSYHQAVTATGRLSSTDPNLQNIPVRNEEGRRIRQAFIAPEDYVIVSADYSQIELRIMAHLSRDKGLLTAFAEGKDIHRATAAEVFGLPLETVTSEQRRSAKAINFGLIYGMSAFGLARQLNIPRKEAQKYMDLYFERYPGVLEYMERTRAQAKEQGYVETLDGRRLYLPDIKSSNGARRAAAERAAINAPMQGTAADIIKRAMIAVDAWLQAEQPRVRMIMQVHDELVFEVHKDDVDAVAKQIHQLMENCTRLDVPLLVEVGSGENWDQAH
Protocol: The ability of Klenow (exo-) DNA polymerase to perform room temperature primer extensions of a pre-annealed primer/template duplex was evaluated in 50 mM NaCl, 10 mM Tris-HCl (pH 7.9), 10 mM MgCl, 1 mM DTT, 0.5 units of enzyme, 0.2 mM dATP and in the presence of one of the following 3′-substituted dTTP derivatives: 3′-THP-dTTP, 3′-MTHP-dTTP or 3′-THF-dTTP (FIG. 4 (top)).

[2] = for Concentration of unmodified dTTP: 250 μM solution of 3′-substituted dTTP, 95° C., PCR buffer (pH 8.4 at 25° C.); for cleavage of the 3′-ester group: within 60 minutes of incubation
Protocol: Conversion of the 3′-substituted dTTP to the corresponding unmodified dTTP was investigated in PCR buffer (pH 8.4 at 25° C., Table 1) at 20° C. and 95° C. The reactions were monitored by analysis of the incubated mixtures by reverse-phase and anion-exchange HPLC.

[3] = target: Taq DNA polymerase (Thermus aquaticus, UniProt P19821); experiment: Primer extension with Taq DNA polymerase at room temperature; conditions: 25 units of enzyme
Sequence of Taq DNA polymerase (P19821 whole entry): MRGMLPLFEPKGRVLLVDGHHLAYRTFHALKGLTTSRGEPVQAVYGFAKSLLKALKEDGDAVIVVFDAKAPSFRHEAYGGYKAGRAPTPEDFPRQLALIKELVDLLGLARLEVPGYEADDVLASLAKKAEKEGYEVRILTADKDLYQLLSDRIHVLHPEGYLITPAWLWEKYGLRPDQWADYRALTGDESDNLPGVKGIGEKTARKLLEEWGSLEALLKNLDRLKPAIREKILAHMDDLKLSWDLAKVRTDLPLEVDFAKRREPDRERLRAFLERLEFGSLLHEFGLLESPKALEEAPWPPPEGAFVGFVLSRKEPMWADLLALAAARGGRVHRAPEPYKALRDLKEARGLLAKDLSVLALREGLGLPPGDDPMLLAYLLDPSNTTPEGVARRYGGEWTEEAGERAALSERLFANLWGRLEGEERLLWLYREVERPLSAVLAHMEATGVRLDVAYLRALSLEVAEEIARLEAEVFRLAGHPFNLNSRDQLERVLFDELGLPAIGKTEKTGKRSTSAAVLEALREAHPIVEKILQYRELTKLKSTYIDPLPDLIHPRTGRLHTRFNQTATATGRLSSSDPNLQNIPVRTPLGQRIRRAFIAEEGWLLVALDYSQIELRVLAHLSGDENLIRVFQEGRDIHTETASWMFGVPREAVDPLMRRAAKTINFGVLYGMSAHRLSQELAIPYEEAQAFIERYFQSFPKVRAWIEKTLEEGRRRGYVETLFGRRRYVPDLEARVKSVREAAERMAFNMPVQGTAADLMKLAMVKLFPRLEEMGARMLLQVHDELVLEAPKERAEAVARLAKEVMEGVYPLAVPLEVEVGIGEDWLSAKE
Source text: The extension experiments were repeated with Taq DNA polymerase at room temperature utilizing 25 units of enzyme and either 3′-THF-dTTP or 3′-Ac-dTTP.

[4] = test system: Lambda DNA and HIV-1 DNA systems; conditions: one 3′-substituted dTTP derivative in place of natural dTTP; compared to all four natural dNTPs
Protocol: For the Lambda DNA and HIV-1 DNA systems (Table 2), PCR conditions were used where non-specific amplification products, including primer dimers, readily formed in the presence of template. These conditions employed 1 μM concentration of both the forward and reverse oligonucleotide primers, 10 HIV-1 or 10,000 Lambda DNA copies of template, 0.2 mM each of dNTP or 3′-substituted dNTP, and 2.0 mM MgCl2. Each mixture contained 50 ng of Human Genomic DNA. The thermal cycling parameters were as follows: 95° C. for 2 min; 40 cycles of [95° C. for 40 sec; 56° C. for 30 sec; 72° C. for 2 min]; 72° C. for 7 min.

[5] = test system: HIV-1 system (365 bp HIV-1 fragment); experiment: Hot Start PCR with 3′-THF-dNTPs substituted for natural dNTPs; assay type: biochemical; conditions: 3′-THF dNTP substituted for its natural dNTP
Protocol: Each mixture contained 50 ng of Human Genomic DNA.
All permutations of substitution of one, two, three or four 3′-THF-dNTPs (from the group of 3′-THF-dATP, […], 3′-THF-dCTP and 3′-THF-dTTP) were examined for their natural counterpart and the resultant effect on reducing primer dimer formation. […] A combined substitution of two or more 3′-THF derivatives of dNTPs for natural dNTPs further improved PCR performance. Thus, combination of 3′-THF-dTTP and 3′-THF-dATP, as a replacement for dTTP and dATP, nearly completely eliminated non-specific amplification products in the HIV-1 system (approximately 10-fold improvement, FIG. 7). Overall, there was a strong correlation between using more than one type of 3′-substituted dNTP in a PCR mixture with an efficiency and specificity of amplicon production.

Structure (SMILES) | substrate for Klenow (exo-) DNA polymerase (incorporation and extension) [1] | substrate for Klenow (exo-) DNA polymerase (incorporation into the primer) [1] | Concentration of unmodified dTTP ([2]; 2 min) | Concentration of unmodified dTTP ([2]; 10 min) [µM] | Concentration of unmodified dTTP ([2]; 20 min) [µM] | substrate for Taq DNA polymerase [3] | overall PCR performance [4] | cleavage of the 3′-acetyl group ([2]; PCR buffer, room temperature, after 24 hours of incubation) [%] | PCR performance (non-specific amplification products, specific amplicon formation) [5] | cleavage of the 3′-ester group ([2]; PCR buffer, room temperature) [%]
Cc1cn([C@H]2C[C@H](OC3CCCO3)[C@@H](COP(=O)(O)OP(=O)(O)OP(=O)(O)O)O2)c(=O)[nH]c1=O (stereo partly drawn) [3′-THF-dTTP] | became substrates for enzyme | not substrates | 7 µM | 39 | 57 | not substrates |  |  |  | 
COC1(O[C@H]2C[C@H](n3cc(C)c(=O)[nH]c3=O)O[C@@H]2COP(=O)(O)OP(=O)(O)OP(=O)(O)O)CCOCC1 [3′-MTHP-dTTP] | became substrates for enzyme | not substrates | 2 µM | 21 | 47 |  |  |  |  | 
CC(=O)OC1CC(n2cc(C)c(=O)[nH]c2=O)OC1COP(=O)(O)OP(=O)(O)OP(=O)(O)O (stereo not drawn) [3′-Ac-dTTP, 3′-O-acetyl-dTTP] |  | not a substrate | 0 µM | 5 | 18 | not substrates | not as good as with natural dTTP | 6 |  | 
Nc1ncnc2c1ncn2C1CC(OC2CCCO2)C(COP(=O)(O)OP(=O)(O)OP(=O)(O)O)O1 (stereo not drawn) [3′-THF-dATP] |  |  |  |  |  |  |  |  | strong reduction of both non-specific amplification products and an increase of specific amplicon formation | 
COCC(=O)O[C@H]1C[C@H](n2cc(C)c(=O)[nH]c2=O)O[C@@H]1COP(=O)(O)OP(=O)(O)OP(=O)(O)O [3′-O[CH3OAc]] |  |  | 35 µM | 140 | 195 |  |  |  |  | 4
Cc1cn([C@H]2C[C@H](OC3CCCCO3)[C@@H](COP(=O)(O)OP(=O)(O)OP(=O)(O)O)O2)c(=O)[nH]c1=O (stereo partly drawn) [3′-THP-dTTP] | became substrates for enzyme | not substrates | ≦1 μM | 10 | 16 |  | not as good as with natural dTTP |  |  | 
Cc1cn([C@H]2C[C@H](OC(=O)COc3ccccc3)[C@@H](COP(=O)(O)OP(=O)(O)OP(=O)(O)O)O2)c(=O)[nH]c1=O [3′-O[PhOAc]] |  |  | 50 µM | 170 | 209 |  |  |  |  | 10
